Key:
[1] = system: DMS-114 cells; experiment: Measurement of intracellular G418 (gentamicin ELISA) in DMS-114 cells; type: cell-based, human; details: 150 μM AC1903 (Fig. 2D)
Method: Figure 2 Effect of AC1903 on PTC readthrough and G418 trafficking.A and B, DMS-114 (A) or TC-71 (B) cells were pretreated with indicated concentrations of AC1903 for 3 h followed by exposure to 400 μg/ml G418. After 3 h medium was replenished and at 24 h cell lysates were prepared and p53 levels were measured. C and E, DMS-114 (C) or JEB01 (E) cells were either left untreated or pretreated with 150 μM AC1903 for 3 h followed by exposure to indicated concentrations of G418 for another 3 h. At 24 h cell lysates were prepared and p53 (C) or Collagen XVII (E) levels were measured. In panels A–C, protein levels were measured by automated capillary electrophoresis Western analysis (using vinculin as loading control). In panel E, protein levels were measured by Western blot (using beta-actin as loading control). […] D, total intracellular levels of G418 were measured in the same lysates as in (C) (n = 5; data normalized to the highest response in each experiment; bars represent mean ± SD). F, total intracellular levels of G418 were measured in the same lysates as in (E) (n = 2; data normalized to the highest response in each experiment; bars represent mean ± SD). ∗ indicates statistically significant difference between samples according to one-way ANOVA (p < 0.05). […]

[2] = system: standard kinase panel; set-up: method as in PMID 29217578; details: cited from earlier work
[3] = system: TRPC4–C1; experiment: [Ca2+]i recordings (Fura-2), concatemeric TRPC4–C1 in HEK T-REx cells; type: cell-based; details: activator EA (30 nM)
Method: Based on the findings described above, we wondered whether AC1903—which is typically used as a TRPC5 inhibitor at concentrations of 30–100 μM in cellular assays ([29], [56])—might have limited selectivity for TRPC5 channels and whether its effect on intracellular G418 levels and PTC readthrough might be the consequence of inhibition of other or multiple targets. All well-characterized TRPC channel inhibitors reported to date modulate multiple TRP(C) channels ([34], [35], [36]). […] Because limited data for the selectivity of AC1903 are available in the public domain, we decided to profile AC1903 against a selection of calcium-permeable cation channels by intracellular calcium ([Ca^2+]i) recordings using well-characterized cell lines and TRP channel activators ([46], [57], [58]), and the Ca^2+ indicator Fura-2. In these assays, cells (HEK 293, HEK T-REx, or CHO) overexpressing the relevant ion channel protein and loaded with Fura-2 AM (a cell-permeable precursor of Fura-2) were preincubated with various concentrations of AC1903 or vehicle (DMSO) for 30 min. Then, changes in ratiometric fluorescence (from background) were recorded upon addition of the respective ion channel activator.
HEK T-REx cells expressing tetracycline-inducible TRPC4, TRPC5, TRPC5–C1,TRPC4–C1, and hPiezo1 have been described previously ([46], [57], [59], [78]). […]

c1ccc(Cn2c(NCc3ccco3)nc3ccccc32)cc1 [AC1903]
intracellular G418 levels in the presence of AC1903 [1]: significantly decreased
off-target effects in a standard kinase panel [2]: no off-target effects were found
IC50 [3]: 3 µM

Source: publication PMC8808171, “Nonselective TRPC channel inhibition and suppression of aminoglycoside-induced premature termination codon readthrough by the small molecule AC1903” (The Journal of Biological Chemistry, 2022)
